Test results from patent US11299712B2, “Method for inducing differentiation of alveolar epithelial cells” (KYOTO UNIVERSITY, priority 2015, dated 2022).

System: type II alveolar epithelial cells
Experiment: Three-dimensional subculture of type II alveolar epithelial cells (AT2-P0 to AT2-P1) in medium for Step 5 with additives, SFTPC-GFP reporter cells
Type: cell-based, human
Conditions: for percentage of type II alveolar epithelial cells maintained of the whole including fibroblasts used for coculture / percentage of type II alveolar epithelial cells maintained relative to the epithelial cell component: AT2-P1, medium for Step 5 plus additive (300 ng/ml WIF, 100 ng/ml IGF2, 10 ng/ml EGF, 20 ng/ml NRG1 β, 3 μM CHIR99021); for percentage of type II alveolar epithelial cells maintained of the whole including fibroblasts used for coculture: control 9.4%; for percentage of type II alveolar epithelial cells maintained relative to the epithelial cell component: control 48.4%; for maintenance of type II alveolar epithelial cells compared with medium supplemented with EGF, NRG1β, CHIR99021: WIF1 300 ng/ml or IGF2 100 ng/ml vs EGF 10 ng/ml, NRG1β 20 ng/ml, CHIR99021 3 μM; for maintenance of type II alveolar epithelial cells in subculture (FIG. 17): medium for Step 5 supplemented with WIF1 (300 ng/ml) or IGF2 (100 ng/ml)
Procedure: On Day 35 of type II alveolar epithelial cell induction in Example 1 (i.e., upon completion of Step 5), the cell mass composed of fibroblasts and spheroids subjected to three-dimensional coculture was removed from the Cell Culture Inserts. The removed cell mass was cut into small pieces of approximately 1 mm with the use of a clean surgical knife, the cells were recovered with the addition of PBS, and centrifugation was carried out at 900 rpm for 5 minutes to remove the supernatant. 0.1% Trypsin/EDTA was added to the precipitate and incubation was then carried out at 37° C. for 15 minutes while adequately repeating pipetting.
Subsequently, DMEM supplemented with 2% FBS was added to neutralize trypsin, followed by centrifugation at 4° C. and 900 rpm for 7 minutes. The supernatant was suction-removed, 1% BSA/PBS was added to the remaining cell pellet, and the resultant was centrifuged again at 4° C. and 900 rpm for 5 minutes. The cell pellet was suspended in 1% BSA/PBS, the mouse anti-human Ep-CAM antibody (Santa Cruz) was added thereto, and the reaction was allowed to proceed at 4° C. for 20 minutes.
Subsequently, the cells were washed 2 times with 1% BSA/PBS, the ALEXA FLUOR® 647-labeled anti-mouse antibody (Life Technologies) was added thereto, and the reaction was allowed to proceed at 4° C. for 20 minutes. After the reaction product was washed 2 times with 1% BSA/PBS, propidium iodide was added in the end, and SFTPC-GFP-positive cells were isolated via FACS with the use of BD FACSAria® II or Aria® III (BD Biosciences). The isolated cells were used as the type II alveolar epithelial cells (AT2-P0).
When type II alveolar epithelial cells were to be subcultured, the type II alveolar epithelial cells were mixed with human fetal lung fibroblasts immediately after isolation, or cryopreserved type II alveolar epithelial cells were mixed with human fetal lung fibroblasts at a ratio of 1:50, the cell suspension of the medium for Step 5 comprising the cells at a cell density of 2.5×10^6 cells/ml and Y-27632 at the final concentration of 10 μM was mixed with MATRIGEL® (Corning) at a ratio of 1:1 at a low temperature, the resultant was immediately added to the upper layer of the Cell Culture Inserts, and the medium for Step 5 was added to the lower layer. The amount to be added to the upper layer of the 12-well plate Cell Culture Inserts is preferably 200 to 400 μL and the amount to be added to the lower layer thereof is preferably 1 ml.
On the first 2 days after the subculture, Y-27632 was added to the medium for Step 5 to the final concentration of 10 μM. Thereafter, the medium for Step 5 of the lower layer was selectively exchanged with another medium every other day. The type II alveolar epithelial cells were isolated 14 days after the initiation of culture, and culture was continued by repeating the three-dimensional coculture with the human fetal lung fibroblasts. As a subculture goes on to the following generation, the cells were designated as AT2-P1, AT2-P2. . . .

| Compound | percentage of type II alveolar epithelial cells maintained of the whole including fibroblasts used for coculture [%] | percentage of type II alveolar epithelial cells maintained relative to the epithelial cell component [%] | maintenance of type II alveolar epithelial cells compared with medium supplemented with EGF, NRG1β, CHIR99021 | maintenance of type II alveolar epithelial cells in subculture (FIG. 17) |
| --- | --- | --- | --- | --- |
| Cc1c[nH]c(-c2cnc(NCCNc3ccc(C#N)cn3)nc2-c2ccc(Cl)cc2Cl)n1 [CHIR99021, 6-[2-[4-(2,4-dichlorophenyl)-5-(4-methyl-1H-imidazol-2-yl)pyrimidin-2-ylamino]-ethylamino]pyridine-3-carbonitrile, reference compound] | 0.5 | 23.8 | – | – |
| EGF: EGF (Wako), medium additive | 1.2 | 5.3 | – | – |
| IGF2: protein encoded by the polynucleotide shown in NCBI Accession Number NM_000612 (R&D Systems) | 16.6 | 58.0 | maintained with higher efficiency | efficiently maintained |
| WIF1: WNT signal inhibitor; protein encoded by the polynucleotide shown in NCBI Accession Number NM_007191 (R&D Systems) | 20.2 | 54.4 | maintained with higher efficiency | efficiently maintained |
